Laboratory results as given in ChEMBL document CHEMBL4196097, “Emerging Approaches for the Identification of Protein Targets of Small Molecules - A Practitioners' Perspective” (J Med Chem, 2018).

Tests used:
Adenosine receptor A3 = biological target: T1, Adenosine receptor A3 (Homo sapiens, UniProt P0DMS8); experiment: Inhibition of adenosine A3 receptor (unknown origin)
T1 sequence (P0DMS8 whole entry): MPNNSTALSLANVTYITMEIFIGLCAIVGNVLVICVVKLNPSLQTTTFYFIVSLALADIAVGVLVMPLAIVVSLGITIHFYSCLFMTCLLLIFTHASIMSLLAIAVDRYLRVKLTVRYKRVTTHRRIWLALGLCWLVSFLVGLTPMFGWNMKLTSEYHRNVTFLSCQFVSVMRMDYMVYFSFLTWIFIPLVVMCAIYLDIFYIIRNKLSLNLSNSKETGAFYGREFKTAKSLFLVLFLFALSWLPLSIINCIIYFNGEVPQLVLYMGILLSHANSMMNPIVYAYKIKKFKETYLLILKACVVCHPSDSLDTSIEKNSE

Translocator protein = Translocator protein (Homo sapiens, UniProt P30536); experiment: Inhibition of peripheral-type benzodiazepine receptor (unknown origin)
Translocator protein, sequence (P30536 whole entry): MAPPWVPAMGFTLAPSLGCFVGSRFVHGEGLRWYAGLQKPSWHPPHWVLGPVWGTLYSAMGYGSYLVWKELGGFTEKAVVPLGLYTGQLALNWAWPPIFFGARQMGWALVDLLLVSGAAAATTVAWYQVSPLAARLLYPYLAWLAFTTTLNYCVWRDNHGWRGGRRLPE

Q: `COC(=O)C[C@@H]1N=C(c2ccc(Cl)cc2)c2c(sc(C)c2C)-n2c(C)nnc21` was tested. Which IC50 (Adenosine receptor A3) did it give?
A: 1400 nM

Q: And the IC50 (Translocator protein)?
A: 400 nM
